Values of other authors, collected in patent US20220387384A1, “METHODS OF TREATING LSD1-RELATED DISEASES AND DISORDERS WITH LSD1 INHIBITORS” (Taiho Pharmaceutical Co., Ltd., priority 2019, published 2022).

Settings: i.e. about 3 days; NPL 11

- half-life in pharmacokinetics: ~71 h
SMILES: COc1ccc(-c2c(-c3ccc(C#N)c(F)c3)nc(N3CCC(N)CC3)n(C)c2=O)cc1F [CC-90011]
